Measurements taken from patent US20220056043A1, “NITROGEN-CONTAINING FUSED CYCLIC COMPOUND, PREPARATION METHOD THEREFOR AND USE THEREOF” (SICHUAN KELUN-BIOTECH BIOPHARMACEUTICAL CO., LTD., priority 2019, published 2022).

How the values were obtained:
[1] = biological target: T1, CYP2D6 (Homo sapiens, UniProt P10635); experiment: CYP enzyme inhibition test, Vivid CYP2D6 Cyan Screening Kit; type: in vitro ADME; conditions: for inhibitory effect on CYP2D6: conclusion in words
T1 construct: purchased
T1 sequence (P10635 whole entry): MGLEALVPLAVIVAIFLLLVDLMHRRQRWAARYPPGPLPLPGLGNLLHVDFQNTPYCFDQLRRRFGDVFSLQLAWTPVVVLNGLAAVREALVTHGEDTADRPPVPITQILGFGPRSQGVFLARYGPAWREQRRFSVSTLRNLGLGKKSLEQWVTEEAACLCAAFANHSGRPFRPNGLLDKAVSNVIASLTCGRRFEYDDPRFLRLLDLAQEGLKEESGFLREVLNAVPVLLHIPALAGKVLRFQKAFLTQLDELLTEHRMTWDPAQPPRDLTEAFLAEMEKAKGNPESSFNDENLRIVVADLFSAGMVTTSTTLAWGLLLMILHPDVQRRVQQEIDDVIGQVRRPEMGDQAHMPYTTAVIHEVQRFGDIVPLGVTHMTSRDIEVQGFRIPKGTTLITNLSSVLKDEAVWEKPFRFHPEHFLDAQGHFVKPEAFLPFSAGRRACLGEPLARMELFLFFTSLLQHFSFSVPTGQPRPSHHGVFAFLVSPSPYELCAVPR
Description: (§1) Experimental Example 6: CYP Enzyme Inhibition Test CYP450 is the most important enzyme system in drug metabolism. The enzymes involved in metabolism interact with drugs, and the most important ones are CYP1A2, CYP2D6 and CYP3A4. P450-Glo™ CYP1A2 Screening System, Vivid® CYP2D6 Cyan Screening Kit and Vivid® CYP3A4 Red Screening Kit were used in this test, and the inhibitory effects of the compounds on CYP1A2, CYP2D6 and CYP3A4 were determined according to the instructions of the kit.

[2] = biological target: T2, hNLRP3 inflammasome (Homo sapiens, UniProt Q96P20); experiment: Agonistic effect on the expression of IL-1β in THP-1 cells after PMA-induced differentiation (HTRF); type: cell-based; conditions: IL-1β level, PMA-differentiated THP-1 cells, 6 hours
T2 construct: endogenous in cells; host or cells: THP-1 cells, PMA-differentiated
T2 sequence (Q96P20 whole entry): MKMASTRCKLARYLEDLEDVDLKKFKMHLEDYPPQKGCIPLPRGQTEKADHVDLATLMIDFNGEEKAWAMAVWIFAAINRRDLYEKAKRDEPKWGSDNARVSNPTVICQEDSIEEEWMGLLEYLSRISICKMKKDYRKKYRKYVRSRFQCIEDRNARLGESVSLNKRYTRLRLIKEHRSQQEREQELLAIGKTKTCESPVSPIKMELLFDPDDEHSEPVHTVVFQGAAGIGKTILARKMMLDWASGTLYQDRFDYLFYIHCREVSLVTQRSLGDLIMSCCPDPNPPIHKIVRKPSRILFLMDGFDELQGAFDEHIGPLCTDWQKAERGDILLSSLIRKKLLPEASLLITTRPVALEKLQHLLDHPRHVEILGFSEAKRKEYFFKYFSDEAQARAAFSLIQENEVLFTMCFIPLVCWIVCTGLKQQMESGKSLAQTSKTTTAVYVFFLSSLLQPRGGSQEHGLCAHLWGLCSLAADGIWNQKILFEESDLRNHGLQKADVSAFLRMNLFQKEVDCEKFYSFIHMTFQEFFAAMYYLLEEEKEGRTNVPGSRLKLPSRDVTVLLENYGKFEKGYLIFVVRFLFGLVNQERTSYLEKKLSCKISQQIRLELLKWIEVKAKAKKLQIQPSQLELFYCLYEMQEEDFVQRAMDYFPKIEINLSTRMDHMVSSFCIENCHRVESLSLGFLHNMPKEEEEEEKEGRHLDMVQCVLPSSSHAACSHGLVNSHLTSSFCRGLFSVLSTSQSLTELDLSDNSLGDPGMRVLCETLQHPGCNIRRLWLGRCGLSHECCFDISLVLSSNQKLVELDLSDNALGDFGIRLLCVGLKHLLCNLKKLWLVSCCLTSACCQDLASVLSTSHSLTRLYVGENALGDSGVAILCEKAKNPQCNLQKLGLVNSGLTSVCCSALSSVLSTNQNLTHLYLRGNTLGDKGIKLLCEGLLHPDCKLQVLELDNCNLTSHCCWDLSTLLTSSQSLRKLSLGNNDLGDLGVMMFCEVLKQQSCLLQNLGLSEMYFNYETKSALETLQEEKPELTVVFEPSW
Description: Experimental Example 1: Agonistic Effect of the Compound of the Invention on the Expression of IL-1β in THP-1 Cells after PMA-Induced Differentiation
In this test, a HTRF (homogeneous time-resolved fluorescence) detection method was used to test the effect of the compound of the invention on the level of downstream cytokine IL-1β of NLRP3 to evaluate the agonistic effect of the compound on hNLRP3 inflammasome or hNLRP3 inflammasome pathway at a cellular level.
Reagent: RPMI 1640 (Hyclone); heat-inactivated FBS (fetal bovine serum) (Gibco); PMA (phorbol myristal acetate) (Beyotime)
Kit: IL-1β assay kit (CISIO)
1) THP-1 cells in a logarithmic growth phase were seeded in a T75 culture flask at a density of 5×10^5 cells/well, and cultured in a cell incubator at 37° C., 5% CO2 for 24 hours, and then 1 μM PMA was used to induce THP-1 suspension cells to become adherent macrophages. The medium was RPMI 1640 containing 10% heat-inactivated FBS and 0.05 mM β-mercaptoethanol.
2) The cells were induced and cultured for 24 hours. Then the adherent cells were trypsinized and centrifuged at 1000 rpm for 5 min. The supernatant was removed, and the cells were resuspended to a density of 2×10^6 cells/mL in RPMI 1640 medium containing 2% heat-inactivated FBS. 50 μL/well of cell resuspension was taken and spread on a 96-well plate such that the number of cells in each well was 1×10^5.
3) An appropriate amount of 10 mM DMSO solution of the compound to be tested was taken and diluted to a concentration of 2× test concentration with RPMI 1640 medium containing 2% heat-inactivated FBS. 50 μL/well of the dilution was added to the cells in the 96-well plate, and mixed well. The plate was placed in a cell incubator at 37° C., 5% CO2 for 6 hours. The supernatant was collected, and the level of IL-1β was measured in accordance with the instructions of the IL-1β detection kit.
4) EC50 was fitted by the GraphPad software log(agonist) vs. response—Variable slope four-parameter method.

[3] = biological target: T3, CYP1A2 (Homo sapiens, UniProt P05177); experiment: CYP enzyme inhibition test, P450-Glo CYP1A2 Screening System; type: in vitro ADME; conditions: for inhibitory effect on CYP1A2: conclusion in words
T3 construct: purchased
T3 sequence (P05177 1-516): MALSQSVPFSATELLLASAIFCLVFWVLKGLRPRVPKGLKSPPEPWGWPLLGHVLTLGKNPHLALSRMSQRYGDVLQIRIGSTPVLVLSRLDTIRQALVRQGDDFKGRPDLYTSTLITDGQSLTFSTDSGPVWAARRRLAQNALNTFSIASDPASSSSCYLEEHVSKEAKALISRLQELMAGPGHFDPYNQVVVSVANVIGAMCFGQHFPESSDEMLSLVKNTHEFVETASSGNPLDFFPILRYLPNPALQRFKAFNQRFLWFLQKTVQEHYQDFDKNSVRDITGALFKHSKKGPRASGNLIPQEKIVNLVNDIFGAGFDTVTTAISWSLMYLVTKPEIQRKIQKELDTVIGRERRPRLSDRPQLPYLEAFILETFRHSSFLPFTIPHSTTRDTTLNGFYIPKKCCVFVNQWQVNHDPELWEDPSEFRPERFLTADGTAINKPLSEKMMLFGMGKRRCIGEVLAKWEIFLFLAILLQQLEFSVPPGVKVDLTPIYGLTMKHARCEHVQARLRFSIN
Description: as §1

[4] = biological target: T4, CYP3A4 (Homo sapiens, UniProt P08684); experiment: CYP enzyme inhibition test, Vivid CYP3A4 Red Screening Kit; type: in vitro ADME; conditions: for inhibitory effect on CYP3A4: conclusion in words
T4 construct: purchased
T4 sequence (P08684 whole entry): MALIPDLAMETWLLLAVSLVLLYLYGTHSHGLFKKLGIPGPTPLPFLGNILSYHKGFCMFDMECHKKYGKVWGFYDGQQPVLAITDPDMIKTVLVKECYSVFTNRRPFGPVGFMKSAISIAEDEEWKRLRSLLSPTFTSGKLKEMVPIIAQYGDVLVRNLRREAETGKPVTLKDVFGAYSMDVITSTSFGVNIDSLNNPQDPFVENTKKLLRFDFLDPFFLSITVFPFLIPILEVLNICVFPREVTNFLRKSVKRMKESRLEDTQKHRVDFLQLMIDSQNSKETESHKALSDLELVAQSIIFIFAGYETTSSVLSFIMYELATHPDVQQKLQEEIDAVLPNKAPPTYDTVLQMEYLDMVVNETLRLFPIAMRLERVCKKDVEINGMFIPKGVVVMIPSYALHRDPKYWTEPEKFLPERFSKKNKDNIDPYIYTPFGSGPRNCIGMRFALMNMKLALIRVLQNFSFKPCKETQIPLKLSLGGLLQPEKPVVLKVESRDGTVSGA
Description: as §1

[5] = biological target: T5, hERG potassium channel (Homo sapiens, UniProt Q12809)
T5 sequence (Q12809 whole entry): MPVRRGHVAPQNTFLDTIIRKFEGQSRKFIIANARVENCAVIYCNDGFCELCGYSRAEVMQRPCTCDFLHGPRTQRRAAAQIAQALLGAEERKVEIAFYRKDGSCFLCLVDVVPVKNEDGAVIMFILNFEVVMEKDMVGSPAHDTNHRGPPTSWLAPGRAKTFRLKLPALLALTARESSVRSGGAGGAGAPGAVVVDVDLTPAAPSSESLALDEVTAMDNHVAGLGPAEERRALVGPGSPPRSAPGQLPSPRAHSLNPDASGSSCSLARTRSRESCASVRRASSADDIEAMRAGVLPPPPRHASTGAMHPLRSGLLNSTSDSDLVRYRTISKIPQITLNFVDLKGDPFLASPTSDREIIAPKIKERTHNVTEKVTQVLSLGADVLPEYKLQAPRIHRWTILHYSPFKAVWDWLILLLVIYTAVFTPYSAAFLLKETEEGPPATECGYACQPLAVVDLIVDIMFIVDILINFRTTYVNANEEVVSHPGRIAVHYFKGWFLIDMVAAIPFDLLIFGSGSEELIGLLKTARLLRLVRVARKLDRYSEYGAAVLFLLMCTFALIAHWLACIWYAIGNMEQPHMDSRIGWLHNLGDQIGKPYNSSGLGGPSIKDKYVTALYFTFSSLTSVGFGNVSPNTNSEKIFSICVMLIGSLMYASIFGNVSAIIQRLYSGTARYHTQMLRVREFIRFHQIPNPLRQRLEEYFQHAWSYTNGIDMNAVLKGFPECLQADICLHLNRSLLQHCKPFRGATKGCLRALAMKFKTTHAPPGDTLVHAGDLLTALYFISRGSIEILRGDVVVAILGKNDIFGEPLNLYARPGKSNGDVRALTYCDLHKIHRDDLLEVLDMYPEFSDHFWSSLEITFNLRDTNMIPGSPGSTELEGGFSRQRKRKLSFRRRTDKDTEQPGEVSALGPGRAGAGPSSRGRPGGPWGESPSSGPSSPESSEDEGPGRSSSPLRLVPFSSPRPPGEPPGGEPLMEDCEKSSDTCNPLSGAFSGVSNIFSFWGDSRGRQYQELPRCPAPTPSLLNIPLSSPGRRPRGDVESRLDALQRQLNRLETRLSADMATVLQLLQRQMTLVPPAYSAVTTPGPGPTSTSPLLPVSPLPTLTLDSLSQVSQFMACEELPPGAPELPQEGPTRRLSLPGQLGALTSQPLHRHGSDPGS

[6] = biological target: T5, hERG potassium channel; experiment: cell-based
[7] = biological target: T5, hERG potassium channel; experiment: in vitro

Row | SMILES | EC50 [2] | further results
1 | Nc1cc(N[C@@H]2CC[C@H](O)C2)c2sc(-c3ccn[nH]3)cc2n1 [Compound 31, (1S,3R)-3-((5-amino-2-(1H-pyrazol-5-yl)thieno[3,2-b]pyridin-7-yl)amino)cyclopentanol] | 0.11 µM | IC50 [1]: > 10 µM; inhibitory effect on CYP2D6 [1]: no apparent inhibitory effects; IC50 [3]: > 10 µM; inhibitory effect on CYP1A2 [3]: no apparent inhibitory effects; IC50 [4]: > 10 µM; inhibitory effect on CYP3A4 [4]: no apparent inhibitory effects
2 | C[C@@H]1CN(CCNc2cc(N)nc3cc(-c4ccn[nH]4)sc23)C[C@H](C)O1 [Compound 117, N^7-(2-((2S,6R)-2,6-dimethylmorpholino)ethyl)-2-(1H-pyrazol-5-yl)thieno[3,2-b]pyridine-5,7-diamine] | 0.27 µM | –
3 | CC(CO)(CO)CNc1cc(N)nc2cc(-c3ccn[nH]3)sc12 [Compound 122] | 0.6 µM | –
4 | Cc1c(-c2cc[nH]n2)sc2c(NCCN3CCOCC3)cc(N)nc12 [Compound 153] | 4.29 µM | –
5 | Cc1c(-c2cc[nH]n2)sc2c(NCC3CC3)cc(N)nc12 [Compound 156] | 5.01 µM | –
6 | Cc1c(-c2ccn[nH]2)sc2c(NC[C@@H]3CCCO3)cc(N)nc12 [Compound 157] | 3.47 µM | –
7 | Cc1c(-c2cc[nH]n2)sc2c(NCCCO)cc(N)nc12 [Compound 159] | 1.29 µM | –
8 | Nc1cc(N2CCN(C3CCCC3)CC2)c2sc(-c3ccn[nH]3)cc2n1 [Compound 160] | 0.11 µM | –
9 | CN1CCN(c2cc(N)nc3cc(-c4ccn[nH]4)sc23)CC1 [Compound 161] | 0.18 µM | –
10 | Nc1cc(N2CCN(C3CC3)CC2)c2sc(-c3ccn[nH]3)cc2n1 [Compound 163] | 0.27 µM | –
11 | Nc1cc(N2CCCC(O)C2)c2sc(-c3ccn[nH]3)cc2n1 (centres unmarked) [Compound 166] | 0.34 µM | –
12 | CC1(C)CCN(c2cc(N)nc3cc(-c4ccn[nH]4)sc23)CC1 [Compound 173] | 0.1 µM | –
13 | Nc1cc(N2CCN(c3ccccc3)CC2)c2sc(-c3ccn[nH]3)cc2n1 [Compound 174] | 0.34 µM | –
14 | Nc1cc(N2CCNCC2)c2sc(-c3ccn[nH]3)cc2n1 [Compound 175] | 0.34 µM | –
15 | Nc1cc(N2CC3CC(C2)N3)c2sc(-c3ccn[nH]3)cc2n1 [Compound 176] | 0.23 µM | –
16 | Nc1cc(N2CCN(C=O)CC2)c2sc(-c3ccn[nH]3)cc2n1 [Compound 178] | 0.17 µM | –
17 | Nc1cc(N2CC3CC(C2)N3C=O)c2sc(-c3ccn[nH]3)cc2n1 [Compound 179] | 0.05 µM | –
18 | Nc1cc(N[C@H]2C[C@H]2CO)c2sc(-c3ccn[nH]3)cc2n1 [Compound 182s] | 0.11 µM | –

Continued by falling EC50 [2], values first:

Row | EC50 [2] | SMILES | further results
19 | 0.06 µM | Nc1cc(NC2CCC(O)CC2)c2sc(-c3ccn[nH]3)cc2n1 (centres unmarked) [Compound 114, 4-((5-amino-2-(1H-pyrazol-5-yl)thieno[3,2-b]pyridin-7-yl)amino)-1-cyclohexanol] | IC50 [1]: > 10 µM; inhibitory effect on CYP2D6 [1]: no apparent inhibitory effects; IC50 [3]: > 10 µM; inhibitory effect on CYP1A2 [3]: no apparent inhibitory effects; IC50 [4]: > 10 µM; inhibitory effect on CYP3A4 [4]: no apparent inhibitory effects
20 | 0.05 µM | Nc1cc(NCC2CCOCC2)c2sc(-c3ccn[nH]3)cc2n1 [Compound 120, 2-(1H-pyrazol-5-yl)-N^7-((tetrahydro-2H-pyran-4-yl)methyl)thieno[3,2-b]pyridine-5,7-diamine] | inhibitory effect on hERG [5]: no apparent inhibitory effect; IC50 [6]: > 10 µM; inhibition at 10 μM [7]: 11.7 ± 0.7%
21 | 0.04 µM | CC(C)(CO)CNc1cc(N)nc2cc(-c3ccn[nH]3)sc12 [Compound 115, 3-((5-amino-2-(1H-pyrazol-5-yl)thieno[3,2-b]pyridin-7-yl)amino)-2,2-dimethyl-1-propanol] | IC50 [1]: > 10 µM; inhibitory effect on CYP2D6 [1]: no apparent inhibitory effects; inhibitory effect on hERG [5]: no apparent inhibitory effect; IC50 [3]: > 10 µM; inhibitory effect on CYP1A2 [3]: no apparent inhibitory effects; IC50 [6]: > 10 µM; IC50 [4]: > 10 µM; inhibitory effect on CYP3A4 [4]: no apparent inhibitory effects; inhibition at 10 μM [7]: 8.26 ± 3.66%
22 | 0.03 µM | COCCNc1cc(N)nc2cc(-c3ccn[nH]3)sc12 [Compound 100, N^7-(2-methoxyethyl)-2-(1H-pyrazol-5-yl)thieno[3,2-b]pyridine-5,7-diamine] | inhibitory effect on hERG [5]: no apparent inhibitory effect; IC50 [6]: > 10 µM; inhibition at 10 μM [7]: 5.42 ± 2.2%
23 | 0.03 µM | CCC(CC)Nc1cc(N)nc2cc(-c3ccn[nH]3)sc12 [Compound 113, N^7-(pent-3-yl)-2-(1H-pyrazol-5-yl)thieno[3,2-b]pyridine-5,7-diamine] | –
24 | 0.03 µM | Nc1cc(NCC(F)F)c2sc(-c3ccn[nH]3)cc2n1 [Compound 116, N^7-(2,2-difluoroethyl)-2-(1H-pyrazol-5-yl)thieno[3,2-b]pyridine-5,7-diamine] | inhibitory effect on hERG [5]: no apparent inhibitory effect; IC50 [6]: > 10 µM; inhibition at 10 μM [7]: 18.5 ± 4.98%
25 | 0.03 µM | CC1(CNc2cc(N)nc3cc(-c4ccn[nH]4)sc23)COC1 [Compound 121, N^7-((3-methyloxetan-3-yl)methyl)-2-(1H-pyrazol-5-yl)thieno[3,2-b]pyridine-5,7-diamine] | –
26 | 0.03 µM | COC1(C)CCN(c2cc(N)nc3cc(-c4ccn[nH]4)sc23)CC1 [Compound 165] | –
27 | 0.03 µM | CC1(C)CN(c2cc(N)nc3cc(-c4ccn[nH]4)sc23)CCO1 [Compound 171] | –
28 | 0.03 µM | Nc1cc(N2CCC(O)CC2)c2sc(-c3ccn[nH]3)cc2n1 [Compound 172] | –
29 | 0.03 µM | C[C@@H]1COCCN1c1cc(N)nc2cc(-c3ccn[nH]3)sc12 [Compound 177] | –
30 | 0.02 µM | Nc1cc(N2CCOCC2)c2sc(-c3ccn[nH]3)cc2n1 [Compound 170] | –
31 | 0.01 µM | N#CC1(CNc2cc(N)nc3cc(-c4ccn[nH]4)sc23)CC1 [Compound 119] | –
32 | 0.01 µM | CC(C)N1CCN(c2cc(N)nc3cc(-c4ccn[nH]4)sc23)CC1 [Compound 162] | –
33 | 0.01 µM | Nc1cc(N2CCN(C3CCCCC3)CC2)c2sc(-c3ccn[nH]3)cc2n1 [Compound 167] | –
34 | 0.01 µM | C[C@H]1CN(c2cc(N)nc3cc(-c4ccn[nH]4)sc23)C[C@H](C)O1 [Compound 168] | –
35 | 0.01 µM | C[C@@H]1CN(c2cc(N)nc3cc(-c4ccn[nH]4)sc23)C[C@H](C)O1 [Compound 169] | –
36 | 0.01 µM | COC1CCN(c2cc(N)nc3cc(-c4ccn[nH]4)sc23)C1 (centres unmarked) [Compound 180] | –
37 | 0.009 µM | Nc1cc(N2CC[C@@H](O)C2)c2sc(-c3ccn[nH]3)cc2n1 [Compound 181] | –
38 | 0.006 µM | CS(=O)(=O)N1CCN(c2cc(N)nc3cc(-c4ccn[nH]4)sc23)CC1 [Compound 164] | –
